Data published in ChEMBL document CHEMBL3244022, “Total syntheses of (+/-)-1-carbacefoxitin and -cefamandole and (+/-)-1-oxacefamandole” (1977).
In brackets after ≈: the same amount, converted by molar mass.

How the values were obtained:
Assay type in all cases: functional
[1] = system: Staphylococcus aureus; assay: Antimicrobial activity against Staphylococcus aureus 2865 by agar dilution method
[2] = system: Streptococcus pyogenes; assay: Antimicrobial activity against Streptococcus pyogenes 3124 by agar dilution method
[3] = system: Enterococcus; assay: Antimicrobial activity against Enterococcus 2862 by agar dilution method
[4] = system: Klebsiella; assay: Antimicrobial activity against Klebsiella 2882 by agar dilution method
[5] = system: Escherichia coli; assay: Antimicrobial activity against Escherichia coli 2884 by agar dilution method
[6] = system: Enterobacter; assay: Antimicrobial activity against Enterobacter 2902 by agar dilution method
[7] = system: Serratia; assay: Antimicrobial activity against Serratia 2852 by agar dilution method
[8] = system: Enterobacteriaceae; assay: Antimicrobial activity against Aerobacter 2826 by agar dilution method
[9] = system: Enterobacteriaceae; assay: Antimicrobial activity against Aerobacter 2828 by agar dilution method
[10] = system: Pseudomonas; assay: Antimicrobial activity against Pseudomonas by agar dilution method
[11] = system: Providencia; assay: Antimicrobial activity against Providencia 2851 by agar dilution method
[12] = system: Proteus vulgaris; assay: Antimicrobial activity against Proteus vulgaris 2829 by agar dilution method
[13] = system: Morganella morganii; assay: Antimicrobial activity against Proteus morganii 2834 by agar dilution method
[14] = system: Proteus mirabilis; assay: Antimicrobial activity against Proteus mirabilis 2830 by agar dilution method

Compound	MIC [1] [µg/mL]	MIC [2] [µg/mL]	MIC [3] [µg/mL]	MIC [4] [µg/mL]	MIC [5] [µg/mL]	MIC [6] [µg/mL]	MIC [7] [µg/mL]	MIC [8] [µg/mL]	MIC [9] [µg/mL]	MIC [10] [µg/mL]	MIC [11] [µg/mL]	MIC [12] [µg/mL]	MIC [13] [µg/mL]	MIC [14] [µg/mL]
Cn1nnnc1SCC1=C(C(=O)O)N2C(=O)[C@@H](NC(=O)C(O)c3ccccc3)[C@H]2CC1 (mixture of isomers)	1.56	3.12	> 100	1.56	1.56	> 100	> 100	1.56	> 100	> 100	6.25	6.25	6.25	25
Cn1nnnc1SCC1=C(C(=O)O)N2C(=O)[C@@H](NC(=O)[C@H](O)c3ccccc3)[C@H]2OC1 (racemic)	< 0.39	< 0.39	25 (≈ 56 µM)	0.78 (≈ 1.75 µM)	< 0.39	12.5 (≈ 28 µM)	> 100	< 0.39	25 (≈ 56 µM)	> 100	2.56 (≈ 5.73 µM)	1.28 (≈ 2.87 µM)	1.28 (≈ 2.87 µM)	100 (≈ 224 µM)
CO[C@@]1(NC(=O)Cc2cccs2)C(=O)N2C(C(=O)O)=C(COC(N)=O)CC[C@@H]21 (racemic)	6.25 (≈ 15.3 µM)	6.25 (≈ 15.3 µM)	> 100	6.25 (≈ 15.3 µM)	12.5 (≈ 30.5 µM)	> 100	50 (≈ 122 µM)	12.5 (≈ 30.5 µM)	> 100	> 100	6.25 (≈ 15.3 µM)	6.25 (≈ 15.3 µM)	6.25 (≈ 15.3 µM)	12.5 (≈ 30.5 µM)
Cn1nnnc1SCC1=C(C(=O)O)N2C(=O)[C@@H](NC(=O)[C@H](O)c3ccccc3)[C@H]2SC1 [CEFAMANDOLE]	< 0.39	< 0.39	50 (≈ 108 µM)	1.56 (≈ 3.37 µM)	< 0.39	50 (≈ 108 µM)	> 100	< 0.39	50 (≈ 108 µM)	> 100	3.12 (≈ 6.75 µM)	1.56 (≈ 3.37 µM)	6.25 (≈ 13.5 µM)	6.25 (≈ 13.5 µM)
CO[C@@]1(NC(=O)Cc2cccs2)C(=O)N2C(C(=O)O)=C(COC(N)=O)CS[C@@H]21 [CEFOXITIN]	1.56 (≈ 3.65 µM)	0.78 (≈ 1.82 µM)	> 100	3.12 (≈ 7.3 µM)	1.56 (≈ 3.65 µM)	> 100	25 (≈ 58.5 µM)	0.78 (≈ 1.82 µM)	> 100	> 100	1.56 (≈ 3.65 µM)	< 0.39	6.25 (≈ 14.6 µM)	1.56 (≈ 3.65 µM)
